The source of these data is PubChem BioAssay (NCI).

The structures appear in SMILES notation.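 Method: 48-hour compound exposure of cells in 96-well plates, five concentrations, linear interpolation of endpoints. TGI: concentration producing complete growth inhibition.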

Some test systems named below: A549 NSCLC; COLO 205 colon; HCT-116 colon; HCT-15 colon; HS 578T breast; KM12 colon; LOX IMVI melanoma; M14 melanoma; MOLT-4 leukemia; NCI-H226 lung; OVCAR-8 ovarian; PC-3 prostate; SF-268 CNS; SF-295 CNS; SK-MEL-5 melanoma; UACC-62 melanoma; UO-31 renal; RPMI-8226 leukemia; RXF 393 renal; SNB-75 CNS.
Holding throughout (test): inhibition of tumour cell growth, NCI panel, 48 h

As for `CC(=O)OC1C(Oc2c(C)cc3c(c2O)[C@@H](C)CC[C@@H]3[C@@H](C)CCC=C(C)C)OCC(O)C1O` (stereo not given in full), the TGI in the assay with A549 NSCLC is 30.2 µM; in the assay with COLO 205 colon, 30.7 µM; with HCT-116 colon, 32.2 µM; with HCT-15 colon, 34.1 µM; with HS 578T breast it was 47.4 µM; with KM12 colon, 31.2 µM. In addition, the TGI in the assay on LOX IMVI melanoma was found to be 32.5 µM; in the assay with M14 melanoma, 30.9 µM; in the assay with MOLT-4 leukemia, 49.7 µM; with NCI-H226 lung it was 40.6 µM; with OVCAR-8 ovarian, 47.4 µM; in the assay with PC-3 prostate, 39.6 µM. For the same compound, the TGI came out at 33.1 µM in the assay on SF-268 CNS; 35.3 µM in the assay with SF-295 CNS; 32.1 µM in the assay with SK-MEL-5 melanoma; 34.9 µM in the assay with UACC-62 melanoma; 32.2 µM in the assay with UO-31 renal.

On to `COC1=C(OC)C(=O)C(Cc2c(C)nc3sccn23)=C(C)C1=O`, for which the TGI in the assay on A549 NSCLC was determined as 40.3 µM; with COLO 205 colon, 26.8 µM; in the assay on HCT-116 colon, 64.2 µM; in the assay on HCT-15 colon it was 41 µM; in the assay with HS 578T breast, 58.5 µM; with KM12 colon, 33.9 µM. Moreover, the TGI with LOX IMVI melanoma is 36.5 µM; with M14 melanoma, 36.6 µM; in the assay with OVCAR-8 ovarian, 33.6 µM; with PC-3 prostate it was 51.6 µM; in the assay with RPMI-8226 leukemia, 24.7 µM; in the assay on RXF 393 renal it was 51.7 µM. The TGI amounted to 37.3 µM in the assay on SF-268 CNS; 30 µM in the assay with SF-295 CNS; 17.6 µM in the assay with SK-MEL-5 melanoma; 23.5 µM with UACC-62 melanoma; 29.1 µM in the assay with UO-31 renal.

For `CC(=O)Oc1ccc2cc(-c3ccccc3OC(C)=O)c(=O)oc2c1`, the TGI in the assay on A549 NSCLC, with COLO 205 colon, in the assay on HCT-116 colon, in the assay on HCT-15 colon, with HS 578T breast and in the assay with KM12 colon was over 100 µM throughout. Also, the TGI with LOX IMVI melanoma was over 100 µM; with M14 melanoma it was over 100 µM; with MOLT-4 leukemia, over 100 µM; with NCI-H226 lung it was 70.7 µM; in the assay with OVCAR-8 ovarian, over 100 µM; in the assay on PC-3 prostate, over 100 µM. For the same compound, the TGI in the assay on RPMI-8226 leukemia was over 100 µM; in the assay with SF-268 CNS, over 100 µM; in the assay on SF-295 CNS, over 100 µM; in the assay with SNB-75 CNS it was 34.4 µM; in the assay on UO-31 renal it was 28.4 µM.

For `CC(CC[C@@]1(C)C(=O)CCC2O[C@]21C)[C@H]1C[C@@H](c2ccoc2)OC1=O` (stereo not given in full), the TGI with A549 NSCLC is over 100 µM; with COLO 205 colon, 52.1 µM; in the assay on HCT-116 colon, 38.4 µM; in the assay on HCT-15 colon, over 100 µM; with HS 578T breast, over 100 µM; in the assay with KM12 colon it was over 100 µM. For the same compound, the TGI with LOX IMVI melanoma is 48.2 µM; in the assay with M14 melanoma, over 100 µM; in the assay with MOLT-4 leukemia it was 84.7 µM; in the assay with NCI-H226 lung, over 100 µM; in the assay with PC-3 prostate it was over 100 µM; with RPMI-8226 leukemia it was 88.7 µM. The TGI was 39.8 µM in the assay with RXF 393 renal; 94.6 µM in the assay with SF-268 CNS; over 100 µM in the assay with SF-295 CNS; over 100 µM in the assay with SK-MEL-5 melanoma; over 100 µM in the assay on UACC-62 melanoma; 35.2 µM with UO-31 renal.

On to `CCOC(=O)C1C(=O)CC1(C)C` (stereo not given), for which the TGI in the assay on A549 NSCLC, with COLO 205 colon, with HCT-116 colon, in the assay with HCT-15 colon, in the assay with HS 578T breast and in the assay with KM12 colon was over 10 µM throughout. Besides, the TGI in the assay on LOX IMVI melanoma, with M14 melanoma, in the assay with MOLT-4 leukemia, in the assay on NCI-H226 lung, in the assay on OVCAR-8 ovarian and in the assay on PC-3 prostate was over 10 µM in each case. The TGI in the assay with RPMI-8226 leukemia, with RXF 393 renal, in the assay on SF-268 CNS, with SF-295 CNS, in the assay on SK-MEL-5 melanoma and with UACC-62 melanoma was over 10 µM each time. In addition, in the assay on UO-31 renal, the TGI was over 10 µM.

On to `Cc1ccc(S(=O)(=O)N/N=C2/CCCOC2)cc1`, for which the TGI with A549 NSCLC, with COLO 205 colon, with HCT-116 colon, with HCT-15 colon, in the assay with HS 578T breast and with KM12 colon was over 100 µM throughout. The TGI in the assay on LOX IMVI melanoma, with M14 melanoma, in the assay with MOLT-4 leukemia, in the assay on NCI-H226 lung, with OVCAR-8 ovarian and with PC-3 prostate was over 100 µM throughout. Also, the TGI in the assay on RPMI-8226 leukemia, with RXF 393 renal, with SF-268 CNS, in the assay with SF-295 CNS, in the assay with SK-MEL-5 melanoma and in the assay on UACC-62 melanoma was over 100 µM throughout. In the assay with UO-31 renal, this compound came in with a TGI of over 100 µM.

As for `COC(=O)c1cc2c(cc1Cl)Sc1nnc(Nc3ccc(C)cc3)n1S2(=O)=O`, the TGI with A549 NSCLC is 35.8 µM; in the assay with COLO 205 colon it was 17.9 µM; in the assay on HCT-116 colon, 24.5 µM; with HCT-15 colon it was 12.5 µM; in the assay with HS 578T breast it was 32.7 µM; with KM12 colon, 20.3 µM. In addition, the TGI in the assay with M14 melanoma was 27.6 µM; in the assay on MOLT-4 leukemia, 7.07 µM; in the assay with NCI-H226 lung it was 28.2 µM; in the assay on OVCAR-8 ovarian it was 40.4 µM; in the assay on PC-3 prostate it was 18 µM; in the assay on RPMI-8226 leukemia it was 5.44 µM. Further, the TGI in the assay on RXF 393 renal is 13.2 µM; in the assay with SF-268 CNS, 10.9 µM; in the assay on SF-295 CNS it was 30.4 µM; in the assay on SK-MEL-5 melanoma, 27.6 µM; in the assay with UACC-62 melanoma, 26 µM; in the assay on UO-31 renal it was 23.6 µM.
